{"source": "paper PMC3414448", "about": "(PLoS ONE, 2012)", "key": {"[1]": {"tested_on": "CHO-K1 cells"}, "[2]": {"tested_on": "A549 cells"}, "[3]": {"tested_on": "undifferentiated Caco-2 cells"}, "[4]": {"tested_on": "differentiated Caco-2 cells"}, "[5]": {"tested_on": "8-hydroxydeoxyguanosine (8-OHdG)"}, "[6]": {"tested_on": "phosphorylated histone variant H2AX (γ-H2AX)"}, "[7]": {"tested_on": "8-hydroxydeoxyguanosine (8-OHdG)", "remark": "listed apart in the source"}, "[8]": {"tested_on": "phosphorylated histone variant H2AX (γ-H2AX)", "remark": "listed apart in the source"}, "[9]": {"tested_on": "8-hydroxydeoxyguanosine (8-OHdG)", "assay": "cells", "settings": "Homo sapiens, Caco-2, 24 h, read-out: EC50 8-OHdG nuclear staining"}, "[10]": {"tested_on": "phosphorylated histone variant H2AX (γ-H2AX)", "assay": "cells", "settings": "Homo sapiens, Caco-2, 24 h, read-out: EC50 γ-H2AX nuclear staining"}}, "note": "Where “and” joins values, the source holds several entries; their conditions need not be identical. Identical values can stand only once. Like-named read-outs stand apart in the source and are kept apart here.", "data": [{"smiles": "CO[C@@]12[C@H](COC(N)=O)C3=C(C(=O)C(C)=C(N)C3=O)N1C[C@@H]1N[C@@H]12", "note": "[MMC, mitomycin C]", "values": [{"measurement": "Cell Count (%Control)", "setting": "[1]", "value": "98.56 %Control and 101.70 %Control and 91.11 %Control"}, {"measurement": "Cell Count (%Control)", "setting": "[2]", "value": "98.78 %Control and 95.22 %Control and 78.78 %Control"}]}, {"smiles": "OO", "note": "[Peroxide, hydrogen peroxide]", "values": [{"measurement": "concentration at which nuclear area was significantly increased", "setting": "[3]", "value": "≥ 100", "unit": "µM"}, {"measurement": "cytotoxicity in differentiated cells", "setting": "[4]", "value": "Neither rotenone nor peroxide induced cytotoxicity"}, {"measurement": "concentration at which 8-OHdG staining was significantly increased", "setting": "[5]", "value": "not statistically significant"}, {"measurement": "EC50", "setting": "[5]; read-out: EC50 8-OHdG nuclear staining", "value": 5500, "unit": "nM"}, {"measurement": "concentration at which γ-H2AX staining was significantly increased", "setting": "[6]", "value": 300, "unit": "µM"}, {"measurement": "γ-H2AX staining at non-cytotoxic concentrations", "setting": "[6]", "value": "increased γ-H2AX staining at the highest non-cytotoxic concentration (100 µM)"}, {"measurement": "concentration at which 8-OHdG was significantly increased", "setting": "[7]", "value": 100, "unit": "µM"}, {"measurement": "concentration at which γ-H2AX staining was increased", "setting": "[8]", "value": 1000, "unit": "µM"}]}, {"smiles": "C=C(C)[C@H]1Cc2c(ccc3c2O[C@@H]2COc4cc(OC)c(OC)cc4[C@@H]2C3=O)O1", "note": "[Rotenone, rotenone]", "values": [{"measurement": "concentration at which nuclear area was significantly increased", "setting": "[3]; undifferentiated Caco-2, 24 hr, p<0.05", "value": "all rotenone concentrations"}, {"measurement": "cytotoxicity in differentiated cells", "setting": "[4]", "value": "Neither rotenone nor peroxide induced cytotoxicity"}, {"measurement": "EC50", "setting": "[9]", "value": 990, "unit": "nM"}, {"measurement": "EC50", "setting": "[10]", "value": 1100, "unit": "nM"}]}]}
